Values quoted from earlier work in patent US6777573B1, “Method for the synthesis of ceralure B1” (The United States of America as represented by the …, priority 2002, dated 2004).
Entries after “also recorded” stand apart in the source; their conditions may differ.

Tested on: Ceratitis capitata (Mediterranean fruit fly, medfly)

Structure (SMILES)	higher attractancy than the racemate (optically active form versus racemic ceralure B1 (Raw et al.))	relative attractiveness among ceralure isomers (isomers separated by HPLC, study of 4 trans isomers (Warthen et al. 1994))
CCOC(=O)C1CC(I)CCC1C (single isomer, unassigned; (-)) [(−)ceralure B1, reference compound]	about 30%	–
CCOC(=O)C1CC(I)CCC1C (mixture of isomers) [ceralure B1, ethyl cis,trans-5-iodo-2-methylcyclohexane-1-carboxylate]	–	most active isomer; also recorded: superior to the other three isomers
